Test system: AKT1/2/3 (Ser473) phosphorylation (mTORC2) in MDA-MB-468 cells
Experiment: Cell based AlphaLISA assay, mTOR kinase cellular assay: inhibition of p-Akt (S473) in MDA-MB-468 cells
Settings: Homo sapiens, read-out: pIC50 for Inhibition of mTORC1 and mTORC2 Substarte Phosphorylation p-AKT1/2/3-(S473) (converted)
Procedure: Cell Based AlphaLISA Assays for Determining IC50 For Inhibition of P-Akt (S473), P-4E-BP1 (T37/46), and P-P70S6K (T389) in MDA-MB-468 Cells
mTOR Kinase Cellular Assay
To measure functional activity of mTORC1 and mTORC2 in cells the phosphorylation of 4EBP1 (Thr37/46) and P70S6K (Thr389), and AKT1/2/3 (Ser473) was monitored using AlphaLisa SureFire Ultra Kits (Perkin Elmer). MDA-MB-468 cells (ATCC® HTB-132) were cultured in 96-well tissue culture plates and treated with compounds in the disclosure at concentrations varying from 0.017-1,000 nM for two to four hours at 37° C. Incubations were terminated by removal of the assay buffer and addition of lysis buffer provided with the assay kit. Samples were processed according to the manufacturer's instructions. The Alpha signal from the respective phosphoproteins was measured in duplicate using a microplate reader (Envision, Perkin-Elmer or Spectramax M5, Molecular Devices). Inhibitor concentration response curves were analyzed using normalized IC50 regression curve fitting with control based normalization.

Compound | IC50 [nM]
CO[C@H]1C[C@@H]2CC[C@@H](C)[C@@](O)(O2)C(=O)C(=O)N2CCCC[C@H]2C(=O)O[C@H]([C@H](C)C[C@@H]2CC[C@@H](OC(=O)NCCOCCOCCOCCOCCOCCOCCOCCOCCC(=O)NCc3ccc(Cn4nc(-c5ccc6oc(N)nc6c5)c5c(N)ncnc54)cc3)[C@H](OC)C2)CC(=O)[C@H](C)/C=C(\C)[C@@H](O)[C@@H](OC)C(=O)[C@H](C)C[C@H](C)/C=C/C=C/C=C/1C [Example 79] | 31.6 to 1000
CO[C@H]1C[C@@H]2CC[C@@H](C)[C@@](O)(O2)C(=O)C(=O)N2CCCC[C@H]2C(=O)O[C@H]([C@H](C)C[C@@H]2CC[C@@H](OC(=O)NCCOCCOCCOCCOCCOCCOCCOCCOCC(=O)N3CCc4cc(Cn5nc(-c6ccc7oc(N)nc7c6)c6c(N)ncnc65)ccc4C3)[C@H](OC)C2)C[C@@H](O)[C@H](C)/C=C(\C)[C@@H](O)[C@@H](OC)C(=O)[C@H](C)C[C@H](C)/C=C/C=C/C=C/1C [Example 72] | ≤ 3.16
CO[C@H]1C[C@@H]2CC[C@@H](C)[C@@](O)(O2)C(=O)C(=O)N2CCCC[C@H]2C(=O)O[C@H]([C@H](C)C[C@@H]2CC[C@@H](OC(=O)NCc3cnc(N4CCN(C(=O)CCOCCN5CCN(c6ncc(C(=O)N7CCc8cc(Cn9nc(-c%10ccc%11oc(N)nc%11c%10)c%10c(N)ncnc%109)ccc8C7)cn6)CC5)CC4)nc3)[C@H](OC)C2)C[C@H](N=[N+]=[N-])[C@H](C)/C=C(\C)[C@@H](O)[C@@H](OC)C(=O)[C@H](C)C[C@H](C)/C=C/C=C/C=C/1C [Example 151] | > 1000
CO[C@H]1C[C@@H]2CC[C@@H](C)[C@@](O)(O2)C(=O)C(=O)N2CCCC[C@H]2C(=O)O[C@H]([C@H](C)C[C@@H]2CC[C@@H](OC(=O)NCc3cnc(N4CCN(c5ncc(C(=O)NCCOCCC(=O)N6CCN(c7ncc(C(=O)NCCCCn8nc(-c9ccc%10oc(N)nc%10c9)c9c(N)ncnc98)cn7)CC6)cn5)CC4)nc3)[C@H](OC)C2)CC(=O)[C@H](C)/C=C(\C)[C@@H](O)[C@@H](OC)C(=O)[C@H](C)C[C@H](C)/C=C/C=C/C=C/1C [Example 53] | 3.16 to 31.6
CO[C@H]1C[C@@H]2CC[C@@H](C)[C@@](O)(O2)C(=O)C(=O)N2CCCC[C@H]2C(=O)O[C@H]([C@H](C)C[C@@H]2CC[C@@H](OC(=O)NCc3cnc(N4CCN(C(=O)CCOCCN5CCN(C(=O)CCC(=O)N6CCc7cc(Cn8nc(-c9ccc%10oc(N)nc%10c9)c9c(N)ncnc98)ccc7C6)CC5)CC4)nc3)[C@H](OC)C2)C[C@@H](OC)[C@H](C)/C=C(\C)[C@@H](O)[C@@H](OC)C(=O)[C@H](C)C[C@H](C)/C=C/C=C/C=C/1C [Example 130] | > 1000
